Results on seven compounds are retold here after ChEMBL document CHEMBL1201862, “PubChem BioAssay data set” (2004).

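48-hour exposure; five concentrations; linearly interpolated endpoints. The concentration for 50% growth inhibition is given as GI50.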 Active and inactive are the calls of the source. Cut-off read from the data, not from the text of the source: active = GI50 up to about 1.1 µM and inactive = higher.

In general, GI50 refers to the concentration that inhibits growth by half.

Some test systems named below: HOP-62; HOP-92; OVCAR-8; CAKI-1; COLO 205; SK-MEL-5; SR; M14; SF-268; A498; LXFL 529; UACC-257; OVCAR-4; HCT-15; MDA-MB-231; HCT-116; NCI-H522; IGROV-1; RPMI-8226; MCF7.
Assay in all cases: DTP human tumour cell line panel, 48 h

On to `O=C1c2ccsc2C(=O)c2sc(CO)cc21`, for which the GI50 in the experiment on HOP-62 is 0.184 µM (active); in the experiment on HOP-92 it was 0.333 µM (active); with OVCAR-8, 0.113 µM (active); in the experiment with CAKI-1 it was 6.47 µM (inactive); in the experiment with COLO 205, 0.817 µM (active); with SK-MEL-5, < 0.0118 µM (active). Also, the GI50 in the experiment with SR is 0.0984 µM (active); in the experiment with M14, < 0.0123 µM (active); with SF-268, 1.11 µM (active); in the experiment with A498 it was 0.331 µM (active); in the experiment on LXFL 529 it was 0.161 µM (active); with UACC-257, 0.0456 µM (active). Further, the GI50 was 0.167 µM (active) with OVCAR-4; 0.0421 µM in the experiment on HCT-15; 0.159 µM (active) with MDA-MB-231; 0.11 µM (active) with HCT-116; 0.106 µM (active) with NCI-H522; 0.627 µM (active) in the experiment with IGROV-1. Moreover, the GI50 with RPMI-8226 was 0.22 µM (active).

Regarding `C=C(CN(C)C)C(=O)c1ccc(C)cc1C`, the GI50 in the experiment with HOP-62 is 32.2 µM (inactive); in the experiment on HOP-92 it was 3.74 µM (inactive); in the experiment with OVCAR-8, 12.9 µM (inactive); in the experiment on CAKI-1, 3.09 µM (inactive); in the experiment on COLO 205, 3.38 µM (inactive); with SK-MEL-5, 14.1 µM (inactive). Besides, the GI50 with SR was 1.25 µM (inactive); with MCF7, 3.3 µM (inactive); with M14, 5.93 µM (inactive); with SF-268, 15.3 µM (inactive); in the experiment on A498 it was 17.2 µM (inactive); in the experiment on LXFL 529, 12.5 µM (inactive). Further, the GI50 is 9.51 µM (inactive) with UACC-257; 9.86 µM (inactive) with OVCAR-4; 4.52 µM in the experiment with HCT-15; 13.3 µM (inactive) with MDA-MB-231; 5.61 µM (inactive) in the experiment on HCT-116; 2.9 µM (inactive) in the experiment on NCI-H522. Also, the figures for the GI50 in the experiment on IGROV-1 and in the experiment with RPMI-8226 were 7.23 µM (inactive) and 1.16 µM (inactive), respectively.

With `C[N+]1(C)C/C(=C\c2ccc(O)cc2)C(=O)/C(=C/c2ccc(O)cc2)C1`, the GI50 was > 100 µM (inactive) with HOP-62; > 100 µM (inactive) with HOP-92; 48.2 µM (inactive) in the experiment with OVCAR-8; > 100 µM (inactive) in the experiment with CAKI-1; 47.1 µM (inactive) in the experiment on COLO 205; > 100 µM (inactive) in the experiment with SK-MEL-5. In addition, the GI50 in the experiment on SR is 82.4 µM (inactive); in the experiment on M14 it was > 100 µM (inactive); with SF-268, 55.7 µM (inactive); in the experiment with A498, 85.1 µM (inactive); in the experiment on LXFL 529, 60.5 µM (inactive); in the experiment with UACC-257 it was > 100 µM (inactive). Moreover, the GI50 in the experiment on OVCAR-4 is > 100 µM (inactive); in the experiment with HCT-15 it was 60.1 µM; with HCT-116, 34 µM (inactive); in the experiment on NCI-H522 it was > 100 µM (inactive); with IGROV-1, > 100 µM (inactive); with RPMI-8226, 44.7 µM (inactive).

Take `C/C(=N\NC(=S)N1CCCCCC1)c1ccccn1`: the GI50 was 0.075 µM (active) in the experiment with HOP-62; 0.01 µM (active) in the experiment with HOP-92; 0.00383 µM (active) in the experiment with OVCAR-8; 0.0162 µM (active) in the experiment on CAKI-1; 0.00244 µM (active) in the experiment on COLO 205; 0.00805 µM (active) in the experiment with SK-MEL-5. The GI50 was 0.00392 µM (active) in the experiment on SR; 0.0022 µM (active) in the experiment on MCF7; 0.0266 µM (active) in the experiment on M14; 0.405 µM (active) in the experiment on SF-268; 0.697 µM (active) with A498; < 0.001 µM (active) in the experiment on LXFL 529. The concentration for 50% growth inhibition (GI50) is 0.0128 µM (active) in the experiment with UACC-257; 0.185 µM (active) in the experiment with OVCAR-4; 0.0249 µM (active) in the experiment with MDA-MB-231; 0.00207 µM (active) in the experiment with HCT-116; 0.0624 µM (active) in the experiment on NCI-H522; 0.00162 µM (active) in the experiment on IGROV-1. The GI50 in the experiment with RPMI-8226 is 0.00405 µM (active).

Take `CCOc1ccc2nc(NC(=O)C(=O)C(C#N)CC(C)(C)C=O)sc2c1` (stereo not given): the GI50 in the experiment on HOP-62, in the experiment with HOP-92, in the experiment on OVCAR-8, in the experiment on CAKI-1, with COLO 205 and in the experiment with SK-MEL-5 was > 100 µM (inactive) throughout. The GI50 in the experiment on SR is 21 µM (inactive); in the experiment on M14, > 100 µM (inactive); in the experiment with SF-268, > 100 µM (inactive); with A498, > 100 µM (inactive); with LXFL 529 it was > 100 µM (inactive); in the experiment with UACC-257 it was > 100 µM (inactive). In addition, the GI50 was > 100 µM (inactive) in the experiment on OVCAR-4; 43.9 µM with HCT-15; > 100 µM (inactive) in the experiment on HCT-116; 49.9 µM (inactive) in the experiment with NCI-H522; > 100 µM (inactive) with IGROV-1; 75.3 µM (inactive) in the experiment on RPMI-8226.

`CC(C)N(C(=O)C12C3C4C1C1C4(C#N)C3C12C(=O)O)C(C)C` (stereo not given): the GI50 was > 100 µM (inactive) with HOP-62; > 100 µM (inactive) in the experiment with HOP-92; > 86.9 µM (inactive) with OVCAR-8; > 100 µM (inactive) in the experiment on CAKI-1; > 100 µM (inactive) in the experiment with COLO 205; > 100 µM (inactive) in the experiment with SK-MEL-5. Besides, the GI50 was 16.8 µM (inactive) in the experiment with SR; > 100 µM (inactive) with M14; > 100 µM (inactive) in the experiment on SF-268; > 100 µM (inactive) with A498; > 100 µM (inactive) in the experiment on LXFL 529; > 100 µM (inactive) with UACC-257. In addition, the GI50 in the experiment on OVCAR-4 is > 100 µM (inactive); with HCT-15, greater than 44.7 µM; in the experiment on HCT-116 it was > 52.8 µM (inactive); in the experiment with NCI-H522, > 69.3 µM (inactive); with IGROV-1, > 100 µM (inactive); in the experiment on RPMI-8226 it was > 43.1 µM (inactive).

As for `COc1cc2c3c(c1OC)C(=O)C=C3N(S(=O)(=O)c1ccc(C)cc1)CC2`, the GI50 was 64.3 µM (inactive) in the experiment with HOP-62; > 100 µM (inactive) with HOP-92; > 100 µM (inactive) in the experiment on OVCAR-8; 52.6 µM (inactive) in the experiment with CAKI-1; > 100 µM (inactive) in the experiment with COLO 205; > 100 µM (inactive) in the experiment on SK-MEL-5. In addition, the GI50 with SR, in the experiment on M14, in the experiment on SF-268, in the experiment with A498, in the experiment on LXFL 529 and in the experiment on UACC-257 was > 100 µM (inactive) in each case. The GI50 was 65.8 µM (inactive) in the experiment with OVCAR-4; greater than 100 µM in the experiment with HCT-15; > 100 µM (inactive) in the experiment with HCT-116; 10.4 µM (inactive) with NCI-H522; > 100 µM (inactive) in the experiment on IGROV-1; > 100 µM (inactive) in the experiment on RPMI-8226.
